The values below come from article PMC4413051, “Glutamate 338 is an electrostatic facilitator of C–Co bond breakage in a dynamic/electrostatic model of catalysis by ornithine aminomutase” (The Febs Journal, 2015).

In test [1] the target is T1, ornithine 4,5-aminomutase (OAM) (Acetoanaerobium sticklandii, UniProt E3PY95).
T1 construct: gene oraE; recombinant, expressed from pET-OAMH2 vector and purified; holoenzyme with PLP and AdoCbl; Glu338 (TIM barrel) and Lys629 lie in OraE
T1 sequence (E3PY95 1-740): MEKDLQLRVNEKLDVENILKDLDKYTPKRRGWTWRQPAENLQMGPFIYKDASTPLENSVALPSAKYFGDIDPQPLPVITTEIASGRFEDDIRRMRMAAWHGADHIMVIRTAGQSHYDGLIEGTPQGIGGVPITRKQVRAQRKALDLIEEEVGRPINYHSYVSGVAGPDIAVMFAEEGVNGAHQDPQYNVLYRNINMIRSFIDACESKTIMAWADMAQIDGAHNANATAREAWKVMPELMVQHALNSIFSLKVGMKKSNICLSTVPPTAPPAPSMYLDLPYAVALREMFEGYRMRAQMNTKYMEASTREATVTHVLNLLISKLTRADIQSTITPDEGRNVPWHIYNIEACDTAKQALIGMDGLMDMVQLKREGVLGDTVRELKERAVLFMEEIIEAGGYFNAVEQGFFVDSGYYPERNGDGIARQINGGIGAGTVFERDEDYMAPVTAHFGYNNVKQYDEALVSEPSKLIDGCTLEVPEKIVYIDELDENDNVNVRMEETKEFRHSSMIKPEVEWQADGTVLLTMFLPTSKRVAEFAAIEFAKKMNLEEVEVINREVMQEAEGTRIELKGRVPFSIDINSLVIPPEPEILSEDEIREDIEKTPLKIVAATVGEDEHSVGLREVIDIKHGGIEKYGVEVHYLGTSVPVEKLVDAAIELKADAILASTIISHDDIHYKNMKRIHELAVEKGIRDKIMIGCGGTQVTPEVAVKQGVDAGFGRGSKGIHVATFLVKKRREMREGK
T1 sequence (E3PY96 1-121 partner): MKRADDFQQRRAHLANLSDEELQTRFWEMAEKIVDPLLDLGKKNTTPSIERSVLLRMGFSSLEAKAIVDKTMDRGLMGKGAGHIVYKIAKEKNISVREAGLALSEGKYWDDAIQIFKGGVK
In words: anaerobic coupled DAPDH assay, NADH at […] nm. The format is biochemical. The conditions noted are these: read-out: Ki(DAB).

For test [2], the target named is T2, ornithine 4,5-aminomutase (OAM) (Acetoanaerobium sticklandii, UniProt E3PY95, E335A).
T2 construct: gene oraE
Put plainly: biochemical.

In test [3] the target is T3, ornithine 4,5-aminomutase (OAM) (Acetoanaerobium sticklandii, UniProt E3PY95, E335D).
T3 construct: gene oraE
In words: biochemical.

Test [4] has as its target T4, ornithine 4,5-aminomutase (OAM) (Acetoanaerobium sticklandii, UniProt E3PY95, E335Q).
T4 construct: gene oraE
In words: biochemical.

Structures are written as SMILES.

By Ki is commonly meant a measure of affinity in units of concentration, obtained from inhibition or displacement. Consider `NCCC(N)C(=O)O` (racemic) [D,L-2,4-diaminobutyric acid], for which the Ki in test [1] came to 5.2 ± 0.1 µM; in test [2], 18.8 ± 2.2 µM; in test [3], 15.2 ± 1.5 µM; in test [4], 11.2 ± 0.1 µM.
